{"source": "ChEMBL document CHEMBL3351798", "about": "“Discovery of the CCR1 antagonist, BMS-817399, for the treatment of rheumatoid arthritis” (J Med Chem, 2014)", "key": {"[1]": {"biological_target": "T1, C-C chemokine receptor type 1 (Homo sapiens, UniProt P32246)", "T1 sequence (P32246 whole entry)": "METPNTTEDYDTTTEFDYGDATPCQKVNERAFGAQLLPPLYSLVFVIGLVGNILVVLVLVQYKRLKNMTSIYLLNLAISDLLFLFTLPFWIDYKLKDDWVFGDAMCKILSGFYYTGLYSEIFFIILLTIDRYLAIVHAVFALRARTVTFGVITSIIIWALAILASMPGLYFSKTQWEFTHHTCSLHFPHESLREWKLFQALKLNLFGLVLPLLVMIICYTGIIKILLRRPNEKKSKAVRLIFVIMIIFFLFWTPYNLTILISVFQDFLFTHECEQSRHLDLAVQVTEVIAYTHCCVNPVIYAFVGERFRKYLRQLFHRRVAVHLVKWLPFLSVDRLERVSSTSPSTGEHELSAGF", "assay": "Displacement of [125I]MIP-1alpha from CCR1 in human THP1 cells", "format": "cell-based, THP-1"}, "[2]": {"biological_target": "C-C chemokine receptor type 2 (Homo sapiens) (UniProt P41597)", "sequence (P41597 whole entry, looked up)": "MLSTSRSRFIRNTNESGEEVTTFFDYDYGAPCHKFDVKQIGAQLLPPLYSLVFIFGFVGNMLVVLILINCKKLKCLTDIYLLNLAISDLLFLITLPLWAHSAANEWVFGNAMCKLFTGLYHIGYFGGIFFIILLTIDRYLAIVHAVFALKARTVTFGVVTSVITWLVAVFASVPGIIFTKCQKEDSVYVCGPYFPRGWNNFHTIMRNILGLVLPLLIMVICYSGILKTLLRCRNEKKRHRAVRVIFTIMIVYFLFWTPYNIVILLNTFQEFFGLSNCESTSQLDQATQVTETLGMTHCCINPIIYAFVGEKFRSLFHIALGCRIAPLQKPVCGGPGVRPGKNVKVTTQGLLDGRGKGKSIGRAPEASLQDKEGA", "assay": "Binding affinity to CCR2 receptor (unknown origin)"}, "[3]": {"assay": "Bioavailability in dog at 5 mg/kg", "format": "ADME, organism-based, Canis lupus familiaris", "details": "in vivo"}, "[4]": {"biological_target": "T2, C-C chemokine receptor type 4 (Homo sapiens) (UniProt P51679)", "T2 sequence (whole entry)": "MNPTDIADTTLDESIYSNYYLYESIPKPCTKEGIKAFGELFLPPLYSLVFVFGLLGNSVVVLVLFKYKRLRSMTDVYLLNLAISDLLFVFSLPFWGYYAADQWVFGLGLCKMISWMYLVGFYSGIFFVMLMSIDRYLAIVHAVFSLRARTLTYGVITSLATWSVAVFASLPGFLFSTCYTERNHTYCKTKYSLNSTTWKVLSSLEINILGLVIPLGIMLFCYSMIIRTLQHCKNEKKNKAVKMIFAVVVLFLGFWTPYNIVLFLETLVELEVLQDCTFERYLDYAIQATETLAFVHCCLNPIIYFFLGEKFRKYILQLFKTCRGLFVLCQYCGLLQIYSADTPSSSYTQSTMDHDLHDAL", "assay": "Binding affinity to CCR4 receptor (unknown origin)"}, "[5]": {"biological_target": "T3, C-X-C chemokine receptor type 5 (Homo sapiens) (UniProt P32302)", "T3 sequence (whole entry)": "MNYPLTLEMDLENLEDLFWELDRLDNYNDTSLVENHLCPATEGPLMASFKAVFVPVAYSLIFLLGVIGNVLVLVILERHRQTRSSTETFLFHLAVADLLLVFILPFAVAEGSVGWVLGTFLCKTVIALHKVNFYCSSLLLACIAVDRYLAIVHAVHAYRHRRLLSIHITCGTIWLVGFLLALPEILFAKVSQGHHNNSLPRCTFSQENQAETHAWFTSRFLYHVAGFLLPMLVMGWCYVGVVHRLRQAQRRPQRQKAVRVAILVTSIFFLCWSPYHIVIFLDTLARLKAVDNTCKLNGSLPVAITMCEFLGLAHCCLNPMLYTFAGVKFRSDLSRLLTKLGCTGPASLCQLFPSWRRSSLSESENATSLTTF", "assay": "Binding affinity to CXCR5 receptor (unknown origin)"}, "[6]": {"assay": "Metabolic stability in rat liver microsomes assessed as compound remaining at 0.5 uM after 60 mins by UV-LC/MS analysis", "format": "ADME", "details": "read-out: Stability"}, "[7]": {"biological_target": "T4, Nuclear receptor subfamily 1 group I member 2 (Homo sapiens, UniProt O75469)", "T4 sequence (O75469 whole entry)": "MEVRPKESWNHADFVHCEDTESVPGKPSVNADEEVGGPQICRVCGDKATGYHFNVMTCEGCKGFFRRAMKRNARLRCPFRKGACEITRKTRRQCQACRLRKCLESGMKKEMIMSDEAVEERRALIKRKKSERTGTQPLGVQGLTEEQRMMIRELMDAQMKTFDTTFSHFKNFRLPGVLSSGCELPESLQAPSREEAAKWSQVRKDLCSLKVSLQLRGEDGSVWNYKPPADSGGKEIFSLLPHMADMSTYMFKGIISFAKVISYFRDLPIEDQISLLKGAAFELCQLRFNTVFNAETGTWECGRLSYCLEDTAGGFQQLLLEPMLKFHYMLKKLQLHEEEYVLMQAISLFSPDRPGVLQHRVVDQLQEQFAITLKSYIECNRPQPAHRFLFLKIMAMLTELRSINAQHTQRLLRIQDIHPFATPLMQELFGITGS", "assay": "Transactivation of human full-length PXR transfected in human HepG2 cells after 24 hrs by luciferase reporter gene assay", "format": "cell-based"}, "[8]": {"species": "Homo sapiens", "assay": "Inhibition of Ca+ channel (unknown origin)"}, "[9]": {"biological_target": "Voltage-gated inwardly rectifying potassium channel KCNH2 (Homo sapiens, UniProt Q12809)", "sequence (Q12809 whole entry)": "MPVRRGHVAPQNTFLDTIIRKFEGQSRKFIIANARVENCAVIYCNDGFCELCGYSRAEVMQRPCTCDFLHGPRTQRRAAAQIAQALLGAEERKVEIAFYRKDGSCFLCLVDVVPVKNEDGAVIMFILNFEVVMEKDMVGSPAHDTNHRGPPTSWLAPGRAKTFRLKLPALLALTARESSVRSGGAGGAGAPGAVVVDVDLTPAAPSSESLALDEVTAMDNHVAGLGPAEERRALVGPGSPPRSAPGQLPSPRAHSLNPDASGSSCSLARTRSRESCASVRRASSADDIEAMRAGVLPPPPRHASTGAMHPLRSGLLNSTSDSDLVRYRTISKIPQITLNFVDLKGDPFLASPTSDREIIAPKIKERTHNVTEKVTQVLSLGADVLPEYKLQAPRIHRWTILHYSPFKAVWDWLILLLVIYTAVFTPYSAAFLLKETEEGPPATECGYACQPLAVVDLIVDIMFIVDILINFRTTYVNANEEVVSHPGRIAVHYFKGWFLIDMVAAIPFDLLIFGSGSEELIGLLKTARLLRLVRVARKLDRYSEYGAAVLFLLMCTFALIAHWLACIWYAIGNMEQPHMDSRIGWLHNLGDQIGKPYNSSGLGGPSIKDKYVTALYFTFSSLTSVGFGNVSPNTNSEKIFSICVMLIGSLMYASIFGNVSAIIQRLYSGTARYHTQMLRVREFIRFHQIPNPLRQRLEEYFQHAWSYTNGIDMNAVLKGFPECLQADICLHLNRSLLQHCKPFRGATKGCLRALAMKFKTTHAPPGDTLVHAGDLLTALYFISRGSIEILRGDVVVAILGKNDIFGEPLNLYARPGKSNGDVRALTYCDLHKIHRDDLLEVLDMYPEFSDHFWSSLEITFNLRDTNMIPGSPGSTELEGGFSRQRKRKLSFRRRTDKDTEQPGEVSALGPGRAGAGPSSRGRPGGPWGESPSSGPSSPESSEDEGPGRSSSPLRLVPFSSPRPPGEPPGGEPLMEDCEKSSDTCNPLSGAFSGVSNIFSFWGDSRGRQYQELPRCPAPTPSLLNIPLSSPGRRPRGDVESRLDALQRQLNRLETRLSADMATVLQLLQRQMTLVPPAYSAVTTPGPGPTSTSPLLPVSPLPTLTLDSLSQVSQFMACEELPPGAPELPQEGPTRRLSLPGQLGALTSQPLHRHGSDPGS", "assay": "Inhibition of human ERG"}, "[10]": {"species": "Homo sapiens", "assay": "Inhibition of Na+ channel (unknown origin)"}}, "note": "The source made the active and inactive calls. No cut-off for these calls is given here.", "data": [{"smiles": "CC(C)[C@@H](NC(=O)NCC(C)(C)O)C(=O)N1CC[C@](O)(c2ccc(Cl)cc2)C(C)(C)C1", "note": "[BMS-817399]", "values": [{"measurement": "IC50", "setting": "[1]", "result": 1, "unit": "nM"}, {"measurement": "Activity", "setting": "[2]", "result": "inactive"}, {"measurement": "bioavailability", "setting": "[3]", "result": 100, "unit": "%"}, {"measurement": "Activity", "setting": "[4]", "result": "inactive"}, {"measurement": "Activity", "setting": "[5]", "result": "inactive"}, {"measurement": "remaining at 1 h, 0.5 µM", "setting": "[6]", "result": 74, "unit": "%"}, {"measurement": "EC50", "setting": "[7]", "result": "> 25000", "unit": "nM"}, {"measurement": "inhibition", "setting": "[8]", "result": "inactive"}, {"measurement": "inhibition (INH)", "setting": "[9]", "result": "Not Active"}, {"measurement": "inhibition", "setting": "[10]", "result": "inactive"}]}]}
